Experimental data taken from patent US9565857B2, “Antimicrobial solutions” (Board of Regents, The University of Texas System, priority 2010, dated 2017).

Columns and labels:
MRSA = assay: modified quantitative germicidal spray / quantitative carrier test, Example 1; type: cell-based, Staphylococcus aureus; settings: criterion: complete kill on 9 of 10 carriers, positive carrier at least 99% reduction; one minute
Experimental: Sterile 50 mL centrifuge tubes, pre-filled with 20 mL of desired neutralizer.
Use 3″×1″ sterile glass containers. Place each carrier into a sterile Petri plastic dish.
Inoculate each carrier with 10 μL of bacterial or fungal suspension. If a carrier has a frosted end, inoculate the non-frosted end.
Using a sterile inoculating needle, spread the inoculum into an approximate 1 cm×1 cm square.
Dry the carriers in a 35° C. incubator for 30 min (lids cracked) or 40 min (lids closed).
Spray each carrier as specified by the test product. Ensure the inoculated area is thoroughly covered. Because of the time it takes to transfer the carrier into the neutralizer, a 30-second (or longer) interval time is recommended.
After the specified exposure time, transfer each carrier to a pre-filled centrifuge tube using forceps. Be sure to pick up the carrier by the non-inoculated end and place the inoculated end into the neutralizer.
Immediately close the cap and invert the tube several times (10 should be sufficient) so the neutralizer coats the entire carrier.
From this point on, follow the enumeration procedure as specified in the Quantitative Carrier Test SOP. […]
The aim of these sets of experiments is to compare the activity of these various solutions on a 10-set slid carriers of MRSA using standard EPA quantitate carrier test in 25-50% calf serum.

[1] = system: MDR-Pseudomonas aeruginosa (PS 4689); assay: modified Kuhn's biofilm model on silicone discs, lock solutions; type: cell-based; settings: quantitative culture of biofilm discs after 2 hrs in solution at 37° C.
Experimental: (§1) Biofilm was grown on sterile silicone discs following a modified Kuhn's method. Briefly, silicone discs were placed into a 24 well tissue culture plate and incubated overnight at 37° C. The plasma was then removed and replaced with 1 mL of 5.5×10^5 CFU/mL inoculum of various organisms. The plates were then incubated for an additional 24 hrs at 37° C. Inoculum was then removed and discs were washed shaking for 30 minutes in 0.9% sterile saline. After washing the discs were placed in 1 mL of various antimicrobial solutions and incubated at 37° C. for 2 hrs. The discs were then removed and placed in 5 mL of 0.9% sterile saline and sonicated to disrupt any remaining biofilm. The resulting solution was then quantitatively cultured by making serial dilutions in 0.9% sterile saline and plating on agar plates, TSA+5% sheep blood for all bacterial organisms and Sabouraud Dextrose Agar for yeasts. A total of 3-9 discs were used for both organisms and respective labs solutions (see Tables 4-6).
(§2) Statistical methods: Wilcoxon rank sum tests were used for comparisons. All the analyses were performed using SAS version 9.1 (SAS Institute Inc., Cary, N.C.).

Candida glabrata = assay: as above; type: cell-based; settings: quantitative culture of biofilm discs after 2 hrs in solution at 37° C.
Experimental: as §1, §2

[2] = system: methicillin resistant Staphylococcus aureus (MRSA 4798); assay: as above; type: cell-based; settings: quantitative culture of biofilm discs after 2 hrs in solution at 37° C.
Experimental: as §1, §2

SMILES | test of being highly effective against MRSA (passed/failed) (MRSA) | Mean [1] | Median (range) [1] | Mean (Candida glabrata) | Median (range) (Candida glabrata) | Mean [2] | Median (range) [2]
N=C(NCCCCCCNC(=N)NC(=N)Nc1ccc(Cl)cc1)NC(=N)Nc1ccc(Cl)cc1 [0.06% CHG alone, 1,1′-hexamethylene-bis-[5-(4-chlorophenyl)-biguanide]] | failed the test | – | – | – | – | – | –
OCC(O)CO [50% Glycerol alone, Glycerol] | – | 1.0 × 10^6 | 1.0 × 10^6 | 6.2 × 10^3 | 1.1 × 10^3 | 1.0 × 10^7 | 1.0 × 10^6
